Source: patent US20250281461A1 (The Board of Supervisors of Louisiana State University and …, priority 2021, published 2025)

Conditions: mouse, in vivo

Cc1ccc(NC(=O)c2ccc(CN3CCN(C)CC3)cc2)cc1Nc1nccc(-c2cccnc2)n1 [Imatinib]
no significant changes: serum ALT levels | serum AST levels | serum BUN levels

COC(=O)Nc1nc2ccc(C(=O)c3ccccc3)cc2[nH]1 [Mebendazole]
no significant changes: serum ALT levels | serum AST levels | serum BUN levels
